Assays:
Type in all cases: binding
[1] = target: kinases (KINOMEscan panel) (Homo sapiens, UniProt P42336, I800L); details: kinase PIK3CA(I800L); NEW KINOMEscan
[2] = target: T1, kinases (KINOMEscan panel) (Homo sapiens, UniProt P54762); details: kinase EPHB1; NEW KINOMEscan
T1 sequence (P54762 18-984): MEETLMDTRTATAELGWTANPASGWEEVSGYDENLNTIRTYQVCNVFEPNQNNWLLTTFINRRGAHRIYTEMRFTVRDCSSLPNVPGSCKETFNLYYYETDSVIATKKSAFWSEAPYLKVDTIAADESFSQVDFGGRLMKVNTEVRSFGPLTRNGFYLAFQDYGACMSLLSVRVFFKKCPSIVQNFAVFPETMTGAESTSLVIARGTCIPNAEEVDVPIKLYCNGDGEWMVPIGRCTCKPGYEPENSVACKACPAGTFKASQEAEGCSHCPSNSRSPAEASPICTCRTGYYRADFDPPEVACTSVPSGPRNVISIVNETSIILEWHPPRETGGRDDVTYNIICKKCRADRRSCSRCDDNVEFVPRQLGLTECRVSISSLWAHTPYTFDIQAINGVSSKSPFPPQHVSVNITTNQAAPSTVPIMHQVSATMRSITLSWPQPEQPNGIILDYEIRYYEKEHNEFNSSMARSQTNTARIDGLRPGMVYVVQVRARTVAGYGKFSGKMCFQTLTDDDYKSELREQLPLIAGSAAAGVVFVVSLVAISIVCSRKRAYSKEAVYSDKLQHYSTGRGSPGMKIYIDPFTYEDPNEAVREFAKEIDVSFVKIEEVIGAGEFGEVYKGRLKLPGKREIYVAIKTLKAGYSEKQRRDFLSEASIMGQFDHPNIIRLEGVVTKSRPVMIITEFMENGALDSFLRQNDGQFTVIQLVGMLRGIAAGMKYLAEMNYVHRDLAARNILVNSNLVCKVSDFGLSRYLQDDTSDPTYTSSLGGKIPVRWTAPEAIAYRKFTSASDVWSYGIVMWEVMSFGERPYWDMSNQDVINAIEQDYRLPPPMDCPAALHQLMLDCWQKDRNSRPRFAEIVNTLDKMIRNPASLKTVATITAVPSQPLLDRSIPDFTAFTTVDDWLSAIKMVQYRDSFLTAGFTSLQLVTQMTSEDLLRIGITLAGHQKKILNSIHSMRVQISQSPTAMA

[3] = target: kinases (KINOMEscan panel) (Homo sapiens, UniProt P17948); details: kinase FLT1; NEW KINOMEscan
kinases (KINOMEscan panel) (Homo sapiens, UniProt P17948), sequence (P17948 27-1338): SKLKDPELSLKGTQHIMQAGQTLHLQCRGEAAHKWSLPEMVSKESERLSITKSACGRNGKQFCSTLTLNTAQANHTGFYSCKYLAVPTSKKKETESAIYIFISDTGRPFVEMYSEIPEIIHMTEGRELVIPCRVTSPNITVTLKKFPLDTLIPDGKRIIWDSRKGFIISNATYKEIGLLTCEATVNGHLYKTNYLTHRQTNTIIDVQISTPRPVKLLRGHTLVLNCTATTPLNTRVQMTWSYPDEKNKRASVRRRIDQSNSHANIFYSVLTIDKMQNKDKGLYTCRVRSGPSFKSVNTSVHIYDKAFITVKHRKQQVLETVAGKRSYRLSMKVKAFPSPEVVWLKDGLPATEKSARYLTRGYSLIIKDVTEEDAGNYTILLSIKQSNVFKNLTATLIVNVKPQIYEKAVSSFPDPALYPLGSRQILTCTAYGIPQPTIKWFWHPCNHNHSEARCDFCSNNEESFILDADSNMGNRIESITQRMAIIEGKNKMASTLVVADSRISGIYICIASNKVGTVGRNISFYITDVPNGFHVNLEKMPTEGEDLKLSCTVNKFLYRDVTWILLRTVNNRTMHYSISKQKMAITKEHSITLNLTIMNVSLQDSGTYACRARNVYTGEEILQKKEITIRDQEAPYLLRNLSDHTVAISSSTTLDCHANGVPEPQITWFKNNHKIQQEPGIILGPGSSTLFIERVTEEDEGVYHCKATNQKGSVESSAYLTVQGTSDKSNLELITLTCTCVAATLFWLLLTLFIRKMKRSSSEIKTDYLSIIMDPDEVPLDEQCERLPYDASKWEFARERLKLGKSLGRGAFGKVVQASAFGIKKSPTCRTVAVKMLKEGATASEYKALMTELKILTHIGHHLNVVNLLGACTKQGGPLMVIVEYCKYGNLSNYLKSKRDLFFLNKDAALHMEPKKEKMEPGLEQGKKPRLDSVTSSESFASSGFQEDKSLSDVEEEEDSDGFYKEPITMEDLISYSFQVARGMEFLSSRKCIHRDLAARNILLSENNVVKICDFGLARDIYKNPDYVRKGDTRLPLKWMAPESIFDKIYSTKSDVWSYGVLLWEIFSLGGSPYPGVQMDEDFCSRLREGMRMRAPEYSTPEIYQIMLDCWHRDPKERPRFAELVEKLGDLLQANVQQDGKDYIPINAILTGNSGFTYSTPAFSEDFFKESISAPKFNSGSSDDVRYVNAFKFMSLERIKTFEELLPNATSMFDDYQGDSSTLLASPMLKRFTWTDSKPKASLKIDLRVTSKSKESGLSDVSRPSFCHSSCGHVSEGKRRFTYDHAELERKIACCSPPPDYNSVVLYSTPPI

[4] = target: T2, kinases (KINOMEscan panel) (Homo sapiens, UniProt Q12866); details: kinase MERTK; NEW KINOMEscan
T2 sequence (Q12866 21-999): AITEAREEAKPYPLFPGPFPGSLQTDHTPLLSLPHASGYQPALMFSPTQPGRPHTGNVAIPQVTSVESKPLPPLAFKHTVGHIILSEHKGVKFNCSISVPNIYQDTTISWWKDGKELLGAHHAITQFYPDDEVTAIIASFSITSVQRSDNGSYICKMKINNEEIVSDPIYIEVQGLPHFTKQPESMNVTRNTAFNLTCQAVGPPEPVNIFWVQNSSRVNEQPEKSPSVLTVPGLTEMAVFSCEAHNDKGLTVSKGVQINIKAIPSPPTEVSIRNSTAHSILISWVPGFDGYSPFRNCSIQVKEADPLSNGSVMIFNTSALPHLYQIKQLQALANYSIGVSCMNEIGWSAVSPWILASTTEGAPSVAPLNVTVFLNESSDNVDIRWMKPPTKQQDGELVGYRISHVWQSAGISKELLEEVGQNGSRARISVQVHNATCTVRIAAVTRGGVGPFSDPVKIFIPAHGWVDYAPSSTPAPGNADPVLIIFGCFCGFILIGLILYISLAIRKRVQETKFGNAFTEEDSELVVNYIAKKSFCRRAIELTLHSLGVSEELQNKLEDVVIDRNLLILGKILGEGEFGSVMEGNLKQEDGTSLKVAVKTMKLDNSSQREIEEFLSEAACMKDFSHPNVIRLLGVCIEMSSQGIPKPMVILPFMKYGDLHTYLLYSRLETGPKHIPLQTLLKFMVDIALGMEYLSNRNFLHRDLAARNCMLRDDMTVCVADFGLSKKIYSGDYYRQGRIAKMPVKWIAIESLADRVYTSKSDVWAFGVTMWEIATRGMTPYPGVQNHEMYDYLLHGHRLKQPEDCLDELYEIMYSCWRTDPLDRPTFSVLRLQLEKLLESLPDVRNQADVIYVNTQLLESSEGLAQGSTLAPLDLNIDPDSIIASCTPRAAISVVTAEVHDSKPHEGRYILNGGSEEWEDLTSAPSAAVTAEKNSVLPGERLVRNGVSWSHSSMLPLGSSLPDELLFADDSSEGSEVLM

[5] = target: T3, kinases (KINOMEscan panel) (Homo sapiens, UniProt Q8TDC3); details: BRSK1; NEW KINOMEscan
T3 sequence (Q8TDC3 1-778): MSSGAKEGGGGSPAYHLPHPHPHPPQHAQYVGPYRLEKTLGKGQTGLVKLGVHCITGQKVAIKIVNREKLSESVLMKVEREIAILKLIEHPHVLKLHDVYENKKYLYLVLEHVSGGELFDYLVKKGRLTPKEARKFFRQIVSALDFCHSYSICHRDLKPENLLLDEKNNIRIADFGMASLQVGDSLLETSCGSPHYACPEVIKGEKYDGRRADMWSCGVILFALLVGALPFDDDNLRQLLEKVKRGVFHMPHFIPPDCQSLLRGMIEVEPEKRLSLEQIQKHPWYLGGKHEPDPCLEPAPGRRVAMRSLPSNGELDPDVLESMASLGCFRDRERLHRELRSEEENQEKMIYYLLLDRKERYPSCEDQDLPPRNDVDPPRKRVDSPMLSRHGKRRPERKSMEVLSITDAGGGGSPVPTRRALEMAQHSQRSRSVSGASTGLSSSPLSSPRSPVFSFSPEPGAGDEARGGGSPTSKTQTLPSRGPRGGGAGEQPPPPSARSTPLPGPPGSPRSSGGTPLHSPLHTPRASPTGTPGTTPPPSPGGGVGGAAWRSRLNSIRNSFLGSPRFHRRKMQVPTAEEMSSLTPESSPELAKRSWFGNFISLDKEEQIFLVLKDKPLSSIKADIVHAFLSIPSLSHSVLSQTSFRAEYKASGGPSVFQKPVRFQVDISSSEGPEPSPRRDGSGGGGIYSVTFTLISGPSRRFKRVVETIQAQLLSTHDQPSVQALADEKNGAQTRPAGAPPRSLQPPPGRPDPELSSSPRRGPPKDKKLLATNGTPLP

[6] = target: kinases (KINOMEscan panel) (Homo sapiens, UniProt O43683); details: kinase BUB1; NEW KINOMEscan
kinases (KINOMEscan panel) (Homo sapiens, UniProt O43683), sequence (O43683 whole entry): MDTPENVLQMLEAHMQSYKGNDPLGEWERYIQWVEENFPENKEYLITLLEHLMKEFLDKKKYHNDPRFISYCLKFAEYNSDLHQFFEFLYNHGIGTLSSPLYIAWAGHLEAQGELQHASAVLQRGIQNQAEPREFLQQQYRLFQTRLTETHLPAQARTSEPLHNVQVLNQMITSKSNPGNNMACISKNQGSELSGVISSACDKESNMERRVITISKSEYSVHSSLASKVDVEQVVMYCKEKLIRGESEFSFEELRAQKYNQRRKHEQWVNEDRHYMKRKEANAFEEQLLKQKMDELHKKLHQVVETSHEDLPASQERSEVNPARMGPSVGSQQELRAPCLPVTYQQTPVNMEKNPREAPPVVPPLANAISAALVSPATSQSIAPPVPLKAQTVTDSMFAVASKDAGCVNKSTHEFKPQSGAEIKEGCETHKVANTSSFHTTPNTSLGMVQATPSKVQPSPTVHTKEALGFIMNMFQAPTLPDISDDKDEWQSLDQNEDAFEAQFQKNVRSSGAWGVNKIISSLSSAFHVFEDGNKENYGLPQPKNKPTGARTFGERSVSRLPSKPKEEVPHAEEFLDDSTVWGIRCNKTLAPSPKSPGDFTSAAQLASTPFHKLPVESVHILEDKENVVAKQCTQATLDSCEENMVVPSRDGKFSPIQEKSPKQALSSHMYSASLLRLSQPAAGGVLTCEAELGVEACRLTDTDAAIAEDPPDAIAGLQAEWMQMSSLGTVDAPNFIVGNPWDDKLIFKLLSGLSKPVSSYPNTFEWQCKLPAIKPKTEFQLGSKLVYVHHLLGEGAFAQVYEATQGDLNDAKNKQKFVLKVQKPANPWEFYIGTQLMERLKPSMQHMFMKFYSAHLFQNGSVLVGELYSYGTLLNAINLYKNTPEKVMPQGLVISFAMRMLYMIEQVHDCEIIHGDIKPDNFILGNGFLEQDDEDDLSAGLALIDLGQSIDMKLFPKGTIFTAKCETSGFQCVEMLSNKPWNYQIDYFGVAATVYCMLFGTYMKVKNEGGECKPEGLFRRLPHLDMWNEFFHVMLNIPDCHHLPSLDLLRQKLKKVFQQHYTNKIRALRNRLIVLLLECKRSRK

kinases (KINOMEscan panel) (Homo sapiens, UniProt P42336, I800L), sequence (P42336 whole entry I800L): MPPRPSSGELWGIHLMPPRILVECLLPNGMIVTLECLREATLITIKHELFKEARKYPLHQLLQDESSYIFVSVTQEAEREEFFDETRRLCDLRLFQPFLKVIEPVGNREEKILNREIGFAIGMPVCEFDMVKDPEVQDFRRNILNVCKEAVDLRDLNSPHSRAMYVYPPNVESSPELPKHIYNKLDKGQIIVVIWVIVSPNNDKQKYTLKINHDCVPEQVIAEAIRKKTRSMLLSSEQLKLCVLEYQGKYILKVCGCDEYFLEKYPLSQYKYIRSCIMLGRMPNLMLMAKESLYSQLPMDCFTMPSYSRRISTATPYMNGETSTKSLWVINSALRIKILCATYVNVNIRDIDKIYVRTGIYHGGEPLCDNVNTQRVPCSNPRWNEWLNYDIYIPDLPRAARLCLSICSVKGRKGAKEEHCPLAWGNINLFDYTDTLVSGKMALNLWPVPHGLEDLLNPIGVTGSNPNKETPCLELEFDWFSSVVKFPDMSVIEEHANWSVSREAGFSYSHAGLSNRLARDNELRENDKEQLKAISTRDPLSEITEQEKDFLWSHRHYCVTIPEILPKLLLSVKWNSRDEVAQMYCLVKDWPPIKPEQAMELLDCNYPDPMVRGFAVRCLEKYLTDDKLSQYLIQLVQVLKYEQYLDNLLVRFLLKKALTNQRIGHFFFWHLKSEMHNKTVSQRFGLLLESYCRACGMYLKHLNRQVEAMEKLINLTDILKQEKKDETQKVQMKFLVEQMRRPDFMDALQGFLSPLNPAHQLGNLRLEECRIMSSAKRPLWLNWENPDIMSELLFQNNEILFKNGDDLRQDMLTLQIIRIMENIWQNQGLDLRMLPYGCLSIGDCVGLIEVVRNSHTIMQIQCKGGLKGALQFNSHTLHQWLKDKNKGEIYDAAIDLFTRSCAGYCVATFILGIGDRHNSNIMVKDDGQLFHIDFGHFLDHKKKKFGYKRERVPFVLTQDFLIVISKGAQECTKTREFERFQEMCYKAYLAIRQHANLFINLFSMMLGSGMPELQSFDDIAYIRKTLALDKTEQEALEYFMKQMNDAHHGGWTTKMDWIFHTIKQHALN

| SMILES | KINOMEscan PIK3CA(I800L) [1] | KINOMEscan EPHB1 [2] | KINOMEscan FLT1 [3] | KINOMEscan MERTK [4] | KINOMEscan BRSK1 [5] | KINOMEscan BUB1 [6] |
| --- | --- | --- | --- | --- | --- | --- |
| Cc1cccc(-c2nc(Nc3ccc4nn(C)cc4c3)c3ccccc3n2)n1 [NK167] | 0 | 0 | 4 | 0 | 0 | 0 |
| Cc1cccc(-c2nc(N(C)c3ccc4ncsc4c3)c3ccccc3n2)n1 [NK-161] | 0 | 14 | 12 | 11 | 0 | 0 |

— paper PMC9851200, “Multiparameter phenotypic screening for endogenous TFEB and TFE3 translocation identifies novel chemical series modulating lysosome function” (Autophagy, 2022)
